This assay concerns the target T1, xanthine oxidase (XOD) (Bos taurus, UniProt P80457).
T1 construct: gene XDH; purified bovine liver XOD
The assay is described as follows: enzyme kinetics, Lineweaver-Burk analysis with purified bovine liver XOD. Type of assay: biochemical.

The term Ki denotes the dissociation constant of the complex between target and ligand, obtained from inhibition or displacement. Low values mean tighter binding, high ones weaker binding.

T1 sequence (P80457 2-1332): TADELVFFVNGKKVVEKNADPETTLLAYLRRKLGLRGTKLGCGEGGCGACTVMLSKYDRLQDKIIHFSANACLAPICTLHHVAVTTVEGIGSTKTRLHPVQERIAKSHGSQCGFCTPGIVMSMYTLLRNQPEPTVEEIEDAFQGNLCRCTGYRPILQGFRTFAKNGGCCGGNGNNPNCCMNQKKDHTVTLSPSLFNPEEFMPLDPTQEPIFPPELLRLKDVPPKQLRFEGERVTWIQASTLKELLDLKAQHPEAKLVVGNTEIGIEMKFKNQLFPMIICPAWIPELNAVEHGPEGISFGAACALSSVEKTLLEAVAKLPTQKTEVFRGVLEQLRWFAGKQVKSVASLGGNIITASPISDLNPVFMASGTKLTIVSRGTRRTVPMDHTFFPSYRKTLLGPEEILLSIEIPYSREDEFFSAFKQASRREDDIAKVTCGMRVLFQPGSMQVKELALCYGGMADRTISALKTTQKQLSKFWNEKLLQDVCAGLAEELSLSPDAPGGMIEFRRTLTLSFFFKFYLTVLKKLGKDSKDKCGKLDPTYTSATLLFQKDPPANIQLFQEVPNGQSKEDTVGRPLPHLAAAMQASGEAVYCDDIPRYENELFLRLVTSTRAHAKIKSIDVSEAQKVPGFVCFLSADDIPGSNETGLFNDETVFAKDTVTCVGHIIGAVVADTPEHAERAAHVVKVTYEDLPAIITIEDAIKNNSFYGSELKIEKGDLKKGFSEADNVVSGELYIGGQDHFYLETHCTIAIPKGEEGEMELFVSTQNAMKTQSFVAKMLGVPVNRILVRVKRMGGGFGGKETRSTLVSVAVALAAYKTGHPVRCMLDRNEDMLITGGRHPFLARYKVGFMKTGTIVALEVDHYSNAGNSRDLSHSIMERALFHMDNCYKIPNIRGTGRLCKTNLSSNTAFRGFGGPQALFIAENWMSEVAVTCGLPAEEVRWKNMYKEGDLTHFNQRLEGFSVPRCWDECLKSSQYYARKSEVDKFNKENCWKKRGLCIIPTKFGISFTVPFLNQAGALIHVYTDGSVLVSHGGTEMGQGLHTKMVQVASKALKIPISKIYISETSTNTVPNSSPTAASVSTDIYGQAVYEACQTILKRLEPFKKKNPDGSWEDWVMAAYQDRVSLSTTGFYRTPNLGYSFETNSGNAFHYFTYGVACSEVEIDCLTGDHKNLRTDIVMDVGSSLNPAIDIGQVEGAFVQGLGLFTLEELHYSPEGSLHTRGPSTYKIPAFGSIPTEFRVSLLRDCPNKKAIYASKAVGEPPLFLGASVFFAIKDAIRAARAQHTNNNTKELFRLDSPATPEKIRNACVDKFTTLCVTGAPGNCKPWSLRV

Regarding `Cn1c(=O)c2c(ncn2C)n(C)c1=O` [caffeine, 1,3,7-trimethylxanthine], the Ki was 4.02 mM.

The values are drawn from paper PMC4745685, “Caffeine affects the biological responses of human hematopoietic cells of myeloid lineage via downregulation of the mTOR pathway and xanthine oxidase activity” (Oncotarget, 2015).
